Results: the NIST ThermoML archive (doi:10.1021/je050514j)
Numbers after ± are expanded uncertainties.

Columns and labels:
[1] = xn = mol fraction of the nth substance listed; conditions: 313.15 K, Fluid (supercritical or subcritical phases), x1 = 1
[2] = refractive index (Na D-line) (dimensionless); conditions: 298.15 K; 101.33 kPa; Liquid; Standard Abbe refractometry
[3] = 313.15 K, 1000 kPa, Fluid (supercritical or subcritical phases)
[4] = 313.15 K, 2000 kPa, Fluid (supercritical or subcritical phases)
[5] = 313.15 K, 3000 kPa, Fluid (supercritical or subcritical phases)
[6] = 313.15 K, 4000 kPa, Fluid (supercritical or subcritical phases)
[7] = 313.15 K, 5000 kPa, Fluid (supercritical or subcritical phases)
[8] = 313.15 K, 6000 kPa, Fluid (supercritical or subcritical phases)
[9] = 313.15 K, 7000 kPa, Fluid (supercritical or subcritical phases)
[10] = 313.15 K, 8000 kPa, Fluid (supercritical or subcritical phases)
[11] = 313.15 K, 9000 kPa, Fluid (supercritical or subcritical phases)
[12] = 313.15 K, 10000 kPa, Fluid (supercritical or subcritical phases)

Compound	mass density [3] [kg/m3]	mass density [4] [kg/m3]	mass density [5] [kg/m3]	mass density [6] [kg/m3]	mass density [7] [kg/m3]	mass density [8] [kg/m3]	mass density [9] [kg/m3]	mass density [10] [kg/m3]	mass density [11] [kg/m3]	mass density [12] [kg/m3]	also measured
O=C=O [carbon dioxide]	17.8 ± 0.2	37.3 ± 0.2	58.6 ± 0.3	83.4 ± 0.4	112.5 ± 0.5	148.7 ± 0.8	197.5 ± 1.2	276.7 ± 2.7	482.6 ± 3.9	627.3 ± 3.5	–
O=C=O [carbon dioxide] + CCOC(C)=O	–	–	–	–	–	–	–	–	–	–	mass density ([1]; 1000 kPa): 17.8 ± 0.2 kg/m3; mass density ([1]; 2000 kPa): 37.3 ± 0.2 kg/m3; mass density ([1]; 3000 kPa): 58.6 ± 0.3 kg/m3; mass density ([1]; 4000 kPa): 83.4 ± 0.4 kg/m3; mass density ([1]; 5000 kPa): 112.5 ± 0.5 kg/m3; mass density ([1]; 6000 kPa): 148.7 ± 0.8 kg/m3; mass density ([1]; 7000 kPa): 197.5 ± 1.2 kg/m3; mass density ([1]; 8000 kPa): 276.7 ± 2.7 kg/m3; mass density ([1]; 9000 kPa): 482.6 ± 3.9 kg/m3; mass density ([1]; 10000 kPa): 627.3 ± 3.5 kg/m3
CCOC(C)=O [ethyl acetate]	876.9 ± 0.4	878 ± 0.4	878.9 ± 0.4	880 ± 0.4	881 ± 0.4	881.9 ± 0.4	882.9 ± 0.5	883.9 ± 0.5	884.9 ± 0.5	885.9 ± 0.5	mass density (298.15 K, 101.33 kPa, Liquid): 894.4 ± 0.3 kg/m3; Normal boiling temperature (Liquid, ebulliometry): 77.06 ± 0.05 °C; refractive index [2]: 1.3702 ± 0.3
